Structures are written as SMILES.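 Exposure lasted 48 hours, with cells grown in 96-well plates and compounds tested at five concentrations. The concentration for 50% growth inhibition is given as GI50.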 Active and inactive are the calls of the source. Cut-off read from the data, not from the text of the source: active = GI50 up to about 1.1 µM and inactive = higher.

Test systems include CAKI-1; NCI-H460; LOX IMVI; 786-0; BT-549; SF-539; HT-29; DU-145; MDA-N; SK-MEL-5; HCT-15; SNB-75; UACC-257; SF-295; UACC-62; HCC 2998; HCT-116; CCRF-CEM; SNB-19; U-251.
Holding throughout (assay): NCI-60 cell line screen, 48 h

Turning to `OC(Cc1cc(CC(O)(C(F)(F)F)C(F)(F)F)nc(CC(O)(C(F)(F)F)C(F)(F)F)c1)(C(F)(F)F)C(F)(F)F`, the GI50 is 0.321 µM (active) in the assay on CAKI-1; 0.358 µM (active) in the assay on NCI-H460; 0.39 µM (active) with LOX IMVI; 1.35 µM (inactive) in the assay with 786-0; 2.46 µM (inactive) with BT-549; 1.69 µM (inactive) in the assay with SF-539. Besides, the GI50 was 1.63 µM (inactive) with HT-29; 1.91 µM (inactive) with DU-145; 1.45 µM (inactive) in the assay on MDA-N; 1.51 µM (inactive) with SK-MEL-5; 0.767 µM in the assay on HCT-15; 1.92 µM (inactive) in the assay on SNB-75. Further, the GI50 in the assay with UACC-257 is 2.05 µM (inactive); in the assay with SF-295 it was 0.509 µM (active); in the assay on UACC-62, 0.337 µM (active); in the assay on HCC 2998, 1.83 µM (inactive); in the assay on HCT-116, 0.869 µM (active); in the assay with CCRF-CEM, > 10 µM (inactive). The GI50 in the assay with SNB-19 was 0.726 µM (active); with U-251, 1 µM (active).
For the compound `CCOC(=O)C1=C(C)OC(=O)[C@@]2(OC)C=C(Cl)[C@@]12C`, the GI50 in the assay on CAKI-1, with NCI-H460, with LOX IMVI, in the assay with 786-0, with BT-549 and in the assay with SF-539 was > 100 µM (inactive) throughout. The GI50 with HT-29 is > 100 µM (inactive); with DU-145, > 100 µM (inactive); in the assay on MDA-N, > 100 µM (inactive); in the assay on SK-MEL-5 it was > 100 µM (inactive); in the assay with HCT-15 it was over 100 µM; in the assay on SNB-75, > 100 µM (inactive). Further, the GI50 with UACC-257, in the assay on SF-295, with UACC-62, with HCC 2998, in the assay on HCT-116 and with CCRF-CEM was > 100 µM (inactive) each time. Further, the GI50 with SNB-19 and in the assay with U-251 was > 100 µM (inactive) throughout.
As for `Cn1c(COC(=O)NC2CCCCC2)c(COC(=O)NC2CCCCC2)c2ccc3cc(Cl)c(Cl)cc3c21`, the GI50 with CAKI-1 was 2.62 µM (inactive); with NCI-H460, 4.41 µM (inactive); in the assay on LOX IMVI, 13.6 µM (inactive); in the assay with 786-0, 6 µM (inactive); in the assay on BT-549, 16.4 µM (inactive); with SF-539, 14.8 µM (inactive). Also, the GI50 in the assay on HT-29 was 27.5 µM (inactive); with DU-145, 28.6 µM (inactive); in the assay on MDA-N, 12.6 µM (inactive); in the assay on SK-MEL-5, 11.7 µM (inactive); in the assay on HCT-15 it was 12.2 µM; in the assay on SNB-75, 8.39 µM (inactive). For the same compound, the GI50 in the assay on UACC-257 is 14.5 µM (inactive); with SF-295 it was 22.8 µM (inactive); in the assay with UACC-62, 11 µM (inactive); in the assay on HCC 2998 it was 13.7 µM (inactive); with HCT-116, 7.43 µM (inactive); in the assay on CCRF-CEM, 3.27 µM (inactive). Further, the GI50 is 11.1 µM (inactive) with SNB-19 and 6 µM (inactive) in the assay with U-251.
For the compound `CCOP(=O)(OCC)/C(C#N)=C(\C)c1ccco1`, the GI50 in the assay on CAKI-1, in the assay on NCI-H460, in the assay on LOX IMVI, in the assay with 786-0, with BT-549 and with SF-539 was > 10 µM (inactive) in each case. Besides, the GI50 in the assay on HT-29 was > 10 µM (inactive); in the assay with DU-145, > 10 µM (inactive); in the assay with MDA-N it was > 10 µM (inactive); with SK-MEL-5, > 10 µM (inactive); with HCT-15 it was over 10 µM; in the assay with SNB-75 it was > 10 µM (inactive). The GI50 in the assay with UACC-257, with SF-295, in the assay on UACC-62, with HCC 2998, in the assay with HCT-116 and with CCRF-CEM was > 10 µM (inactive) throughout. The GI50 in the assay on SNB-19 and with U-251 was > 10 µM (inactive) throughout.
As to `OC(c1ccc(F)cc1)(c1ccc(F)cc1)C1CC1`, the GI50 with CAKI-1 is 25.3 µM (inactive); with NCI-H460, 29 µM (inactive); in the assay on LOX IMVI, 20 µM (inactive); in the assay on 786-0, 29.2 µM (inactive); in the assay on BT-549, 19.2 µM (inactive); in the assay with SF-539, 33.3 µM (inactive). In addition, the GI50 in the assay with HT-29 was 21.5 µM (inactive); with DU-145, 49.9 µM (inactive); in the assay on MDA-N, 19.4 µM (inactive); in the assay with SK-MEL-5, 16.6 µM (inactive); in the assay on HCT-15 it was 23 µM; in the assay with SNB-75, 50.6 µM (inactive). Besides, the GI50 in the assay on UACC-257 was 26 µM (inactive); in the assay with SF-295 it was 27.9 µM (inactive); in the assay with UACC-62, 23.9 µM (inactive); in the assay on HCC 2998, 20.5 µM (inactive); in the assay with HCT-116, 26.8 µM (inactive); with CCRF-CEM, 24.8 µM (inactive). For the same compound, the results for the GI50 in the assay with SNB-19 and with U-251 were 42.8 µM (inactive) and 24 µM (inactive), respectively.
As to `CN(C)c1ccc(/C=C(\NC(=O)c2ccccc2)C(=O)NC(CCC(=O)O)C(=O)O)cc1` (stereo not given), the GI50 in the assay with CAKI-1, with NCI-H460, in the assay with LOX IMVI, in the assay with 786-0, in the assay with BT-549 and in the assay with SF-539 was > 100 µM (inactive) in each case. The GI50 with HT-29 is > 100 µM (inactive); in the assay with DU-145, > 100 µM (inactive); in the assay with MDA-N, > 100 µM (inactive); in the assay on SK-MEL-5, > 100 µM (inactive); with HCT-15 it was over 100 µM; with SNB-75, > 100 µM (inactive). The GI50 in the assay with UACC-257, with SF-295, in the assay with UACC-62, with HCC 2998, in the assay with HCT-116 and with CCRF-CEM was > 100 µM (inactive) throughout. In addition, the GI50 with SNB-19 and in the assay on U-251 was > 100 µM (inactive) throughout.
`CCN(CC)CCOC(=O)Cc1cccc2c(=O)cc(-c3ccccc3)oc12`: the GI50 was 13.6 µM (inactive) in the assay on CAKI-1; 10.2 µM (inactive) with NCI-H460; 29.6 µM (inactive) in the assay with LOX IMVI; 55.1 µM (inactive) in the assay on 786-0; 40.7 µM (inactive) in the assay with BT-549; 44.1 µM (inactive) in the assay with SF-539. Besides, the GI50 with HT-29 is 44.1 µM (inactive); in the assay on DU-145, 40.3 µM (inactive); in the assay on MDA-N, 22.3 µM (inactive); with SK-MEL-5 it was 32 µM (inactive); in the assay with HCT-15 it was 18.5 µM; in the assay with SNB-75 it was 41.7 µM (inactive). For the same compound, the GI50 with UACC-257 was 54.3 µM (inactive); in the assay with SF-295 it was 55.6 µM (inactive); in the assay with UACC-62 it was 29 µM (inactive); in the assay on HCC 2998 it was 44.6 µM (inactive); with HCT-116, 48.3 µM (inactive); with CCRF-CEM it was 34.4 µM (inactive). In addition, the GI50 is 56.1 µM (inactive) in the assay with SNB-19 and 50.2 µM (inactive) in the assay on U-251.
Consider `Cc1cnc(-n2c(C)nc3cc(Cl)ccc3c2=O)s1`, for which the GI50 in the assay with CAKI-1 is 64.3 µM (inactive); with NCI-H460, 30.2 µM (inactive); in the assay on LOX IMVI, 41.6 µM (inactive); in the assay on 786-0 it was 24.5 µM (inactive); in the assay on BT-549, 28.4 µM (inactive); in the assay on SF-539, 20.7 µM (inactive). Also, the GI50 in the assay on HT-29 is 32.7 µM (inactive); in the assay with DU-145 it was 25.6 µM (inactive); in the assay on MDA-N it was 13 µM (inactive); in the assay with SK-MEL-5, 16 µM (inactive); in the assay with HCT-15, 26.2 µM; with SNB-75 it was 10.6 µM (inactive). The GI50 in the assay with UACC-257 is 29.1 µM (inactive); with SF-295 it was 37.1 µM (inactive); in the assay with UACC-62, 23.2 µM (inactive); in the assay on HCC 2998, 26.5 µM (inactive); in the assay with HCT-116 it was 22 µM (inactive); with CCRF-CEM it was 31.5 µM (inactive). The GI50 with SNB-19 is 35.1 µM (inactive); in the assay on U-251, 30.5 µM (inactive).
As for `Cc1ccc(S(=O)(=O)NC(=O)NCC(=O)NCC(=O)O)cc1`, the GI50 in the assay with CAKI-1, with NCI-H460, in the assay on LOX IMVI, in the assay on 786-0, in the assay on BT-549 and in the assay with SF-539 was > 100 µM (inactive) throughout. The GI50 in the assay on HT-29 is > 100 µM (inactive); in the assay on DU-145, > 100 µM (inactive); with MDA-N, > 100 µM (inactive); in the assay on SK-MEL-5 it was > 100 µM (inactive); in the assay on HCT-15, over 100 µM; in the assay with SNB-75 it was > 100 µM (inactive). Moreover, the GI50 with UACC-257, in the assay on SF-295, with UACC-62, in the assay on HCC 2998, in the assay with HCT-116 and in the assay on CCRF-CEM was > 100 µM (inactive) throughout. Moreover, the GI50 in the assay on SNB-19 and with U-251 was > 100 µM (inactive) in each case.
In the case of `CO[C@H]1C[C@H](n2cc(C)c(=O)[nH]c2=O)O[C@@H]1CO`, the GI50 in the assay with CAKI-1, in the assay with NCI-H460, in the assay on LOX IMVI, with 786-0, in the assay on BT-549 and in the assay with SF-539 was > 100 µM (inactive) throughout. The GI50 in the assay with HT-29 is > 100 µM (inactive); with DU-145 it was > 100 µM (inactive); with MDA-N, > 100 µM (inactive); in the assay with SK-MEL-5, > 100 µM (inactive); with HCT-15 it was over 100 µM; with SNB-75, > 100 µM (inactive). Further, the GI50 in the assay with UACC-257, in the assay on SF-295, with UACC-62, in the assay with HCC 2998, in the assay with HCT-116 and in the assay with CCRF-CEM was > 100 µM (inactive) each time. The GI50 in the assay with SNB-19 and in the assay with U-251 was > 100 µM (inactive) each time.

Values taken from ChEMBL document CHEMBL1201862, “PubChem BioAssay data set” (2004).
